Like-named read-outs stand apart in the source and are kept apart here.
Legend:
Type in all cases: biochemical
Cathepsin D = Cathepsin D (Homo sapiens, UniProt P07339); experiment: Cathepsin D Inhibitory Assay (FAM-SEVNLDAEFK-TAMRA substrate cleavage, fluorescence); details: Assay (III)
Method: (II) Cathepsin D Inhibitory Assay
(§1) For each compound being assayed, in a 384 well plate, is added:
(§2) a) 1 μl of a DMSO solution of the test compound (IC50 curve uses ten 1 in 2 serial dilutions from 500 μM).
(§3) b) 10 μl of substrate (FAM-SEVNLDAEFK-TAMRA) solution in buffer. This is prepared by diluting 2 ml of a 2 mM DMSO solution of the substrate into 400 ml of buffer (100 mM Sodium acetate pH=4.5, 1 l Milli-Q water, 0.06% Triton X-100 (0.5 ml/l), pH adjusted to 4.5 using glacial acetic acid). c) 10 μl enzyme solution. This is prepared by diluting 1.6 ml of a 200 unit/ml (in 10 mM HCl) enzyme solution into 398.4 ml of buffer (prepared as above).
(§4) Blank wells (enzyme solution replaced by buffer) are included as controls on each plate. Wells are incubated for 1 h at room temperature and fluorescence read using a Tecan Ultra Fluorimeter/Spectrophotometer (485 nm excitation, 535 nm emission).

Asp-2 = Asp-2 (Homo sapiens, UniProt P56817); experiment: Asp-2 Inhibitory Assay (FAM-[SEVNLDAEFK]-TAMRA substrate cleavage, fluorescence); details: Assay (I)
Method: (I) Asp-2 Inhibitory Assay
as §1, §2
as §3, with “(FAM-[SEVNLDAEFK]-TAMRA)” for “(FAM-SEVNLDAEFK-TAMRA)”, “acid). Aminomethyl fluorescein (FAM) and tetramethyl rhodamine (TAMRA) are fluorescent molecules which co-operate to emit fluorescence at 535 nm upon cleavage of the SEVNLDAEFK peptide.” for “acid).”, “16” for “1.6”, “500 nM” for “200 unit/ml (in 10 mM HCl)”, “384” for “398.4”
as §4

Asp-1 = biological target: T1, Asp-1 (Homo sapiens, UniProt Q9Y5Z0); experiment: Asp-1 Inhibitory Assay (FAM-[SEVNLDAEFK]-TAMRA substrate cleavage, fluorescence); details: Assay (II), pH 4.5, 2 h room temperature
T1 sequence (Q9Y5Z0 63-518): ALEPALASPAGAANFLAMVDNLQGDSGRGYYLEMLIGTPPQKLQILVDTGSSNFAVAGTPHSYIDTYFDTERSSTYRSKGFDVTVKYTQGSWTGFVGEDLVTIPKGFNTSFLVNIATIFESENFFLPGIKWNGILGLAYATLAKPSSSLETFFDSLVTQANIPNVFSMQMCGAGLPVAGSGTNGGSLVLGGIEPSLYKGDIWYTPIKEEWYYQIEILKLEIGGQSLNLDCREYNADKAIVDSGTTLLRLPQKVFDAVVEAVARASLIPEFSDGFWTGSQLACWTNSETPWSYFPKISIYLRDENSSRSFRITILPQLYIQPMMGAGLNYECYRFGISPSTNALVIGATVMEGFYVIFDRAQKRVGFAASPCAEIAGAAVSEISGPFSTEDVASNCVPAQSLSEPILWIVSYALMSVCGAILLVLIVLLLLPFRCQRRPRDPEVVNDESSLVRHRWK
Method: (II) Asp-1 Inhibitory Assay
as §1, §2
b) 10 μl of substrate (FAM-[SEVNLDAEFK]-TAMRA) solution in buffer. This is prepared by diluting 2 ml of a 2 mM DMSO solution of the substrate into 400 ml of buffer (100 mM Sodium acetate pH=4.5, 1 l Milli-Q water, 0.06% Triton X-100 (0.5 ml/l), pH adjusted to 4.5 using glacial acetic acid). c) 10 μl enzyme solution. This is prepared by diluting 4 ml of a 6.3 μM enzyme solution into 496 ml of buffer (100 mM Sodium acetate pH=4.5, 40 mM sodium chloride, 900 ml Milli-Q water, 100 ml glycerol, 0.2% CHAPS (2 g/l), pH adjusted to 4.5 using glacial acetic acid).
Blank wells (enzyme solution replaced by buffer) are included as controls on each plate. Wells are incubated for 2 h at room temperature and fluorescence read using a Tecan Ultra Fluorimeter/Spectrophotometer (485 nm excitation, 535 nm emission).

[1] = range given for a group of Examples, read-out: range of inhibition (CatD)
[2] = range given for a group of Examples, read-out: range of inhibition (Asp-2)
[3] = pH 4.5, 1 h room temperature, read-out: Cat. D IC50
[4] = pH 4.5, 1 h room temperature, read-out: Asp-2 IC50

Sequence of Cathepsin D (P07339 65-412, species assumed): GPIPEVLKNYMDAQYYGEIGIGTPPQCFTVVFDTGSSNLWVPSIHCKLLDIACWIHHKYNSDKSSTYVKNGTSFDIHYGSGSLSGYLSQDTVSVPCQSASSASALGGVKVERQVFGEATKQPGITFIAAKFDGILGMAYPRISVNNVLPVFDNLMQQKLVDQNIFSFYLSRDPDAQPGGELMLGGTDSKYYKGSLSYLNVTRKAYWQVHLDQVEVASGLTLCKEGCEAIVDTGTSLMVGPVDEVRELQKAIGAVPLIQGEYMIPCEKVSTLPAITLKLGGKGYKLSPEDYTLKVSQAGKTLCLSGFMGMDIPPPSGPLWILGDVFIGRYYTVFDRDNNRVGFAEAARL
Sequence of Asp-2 (P56817 46-501): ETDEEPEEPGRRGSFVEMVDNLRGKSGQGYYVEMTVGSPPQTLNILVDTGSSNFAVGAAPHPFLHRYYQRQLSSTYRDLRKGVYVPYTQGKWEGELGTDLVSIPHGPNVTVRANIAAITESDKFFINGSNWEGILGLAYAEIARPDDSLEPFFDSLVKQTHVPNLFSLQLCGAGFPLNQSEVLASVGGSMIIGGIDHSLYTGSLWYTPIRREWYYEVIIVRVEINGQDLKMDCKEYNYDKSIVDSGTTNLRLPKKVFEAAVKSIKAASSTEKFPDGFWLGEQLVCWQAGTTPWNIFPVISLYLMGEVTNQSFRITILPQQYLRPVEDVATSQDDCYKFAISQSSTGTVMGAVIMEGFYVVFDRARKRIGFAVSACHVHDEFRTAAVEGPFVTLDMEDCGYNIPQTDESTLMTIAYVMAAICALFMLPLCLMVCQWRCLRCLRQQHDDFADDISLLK

Work on C[C@H](C[C@H](O)[C@H](Cc1ccccc1)NC(=O)c1cc(N2CCCC2=O)cc(N2CCCC2=O)c1F)C(=O)NC1CCC(C(C)(C)C)CC1 (stereo partly drawn) [Example E32, N-[(1S,2S,4R)-1-Benzyl-4-(4-tert-butylcyclohexylcarbamoyl)-2-hydroxypentyl]-2-fluoro-3,5-bis-(2-oxopyrrolidin-1-yl)benzamide] yielded an IC50 (Cathepsin D; [1]) of 0.34 to 3 µM and an IC50 (Asp-2; [2]) of 0.002 to 0.03 µM.
CC(C)Oc1cc(C(=O)N[C@@H](Cc2ccccc2)[C@@H](O)C[C@@H](C)C(=O)NC2CC3CCC2C3)cc(N2CCCC2=O)c1 (stereo partly drawn) [Example E14, N-[(1S,2S,4R)-1-Benzyl-4-(bicyclo[2.2.1]hept-2-ylcarbamoyl)-2-hydroxypentyl]-3-isopropoxy-5-(2-oxopyrrolidin-1-yl)benzamide] gave an IC50 (Cathepsin D; [1]) of 0.34 to 3 µM and an IC50 (Asp-2; [2]) of 0.002 to 0.03 µM.
Compound CC(C)Oc1cc(C(=O)N[C@@H](Cc2ccccc2)[C@@H](O)C[C@@H](C)C(=O)NC2CCC2)cc(N2CCCC2=O)c1 [Example E26, N-[(1S,2S,4R)-1-Benzyl-4-(cyclobutylcarbamoyl)-2-hydroxypentyl]-3-isopropoxy-5-(2-oxopyrrolidin-1-yl)benzamide] has an IC50 (Cathepsin D; [1]) of 0.34 to 3 µM and an IC50 (Asp-2; [2]) of 0.002 to 0.03 µM.
In the case of C[C@H](C[C@H](O)[C@H](Cc1ccccc1)NC(=O)c1ccc(F)c(N2CCCC2=O)c1)C(=O)NCCC(C)(C)C (stereo in doubt) [Example E1, N-[(1S,2S,4R)-1-Benzyl-4-(3,3-dimethylbutylcarbamoyl)-2-hydroxypentyl]-4-fluoro-3-(2-oxopyrrolidin-1-yl)-benzamide], the IC50 (Cathepsin D; [3]) is reported as 13 µM, the IC50 (Asp-2; [4]) is reported as 0.6 µM and the IC50 (Asp-1) is reported as 6 µM.
CCCOc1cc(C(=O)N[C@@H](Cc2ccccc2)[C@@H](O)C[C@@H](C)C(=O)NCCC(C)(C)C)cc(N2CCCC2=O)c1 [Example E4, N-[(1S,2S,4R)-1-Benzyl-4-(3,3-dimethylbutylcarbamoyl)-2-hydroxypentyl]-3-(2-oxopyrrolidin-1-yl)-5-propoxybenzamide] showed an IC50 (Cathepsin D; [3]) of 1.8 µM, an IC50 (Asp-2; [4]) of 0.035 µM and an IC50 (Asp-1) of 0.15 µM.
Compound C[C@H](C[C@H](O)[C@H](Cc1ccccc1)NC(=O)c1cccc(N2CCCC2=O)c1F)C(=O)NC1CC2CCC1C2 (stereo partly drawn) [Example E21, N-[(1S,2S,4R)-1-Benzyl-4-(bicyclo[2.2.1]hept-2-ylcarbamoyl)-2-hydroxypentyl]-2-fluoro-3-(2-oxopyrrolidin-1-yl)-benzamide] has an IC50 (Cathepsin D; [1]) of 0.34 to 3 µM and an IC50 (Asp-2; [2]) of 0.002 to 0.03 µM.
Work on C[C@H](C[C@H](O)[C@H](Cc1ccccc1)NC(=O)c1cc(N2CCCC2=O)cc(N2CCCC2=O)c1)C(=O)NC1CC2CCC1C2 (stereo partly drawn) [Example E8, N-[(1S,2S,4R)-1-Benzyl-4-(bicyclo[2.2.1]hept-2-ylcarbamoyl)-2-hydroxypentyl]-3,5-bis-(2-oxopyrrolidin-1-yl)benzamide] yielded an IC50 (Cathepsin D; [1]) of 0.34 to 3 µM and an IC50 (Asp-2; [2]) of 0.002 to 0.03 µM.
C=CCOc1cc(C(=O)N[C@@H](Cc2ccccc2)[C@@H](O)C[C@@H](C)C(=O)NCCC(C)(C)C)cc(N2CCCC2=O)c1 [Example E3, 3-Allyloxy-N-[(1S,2S,4R)-1-benzyl-4-(3,3-dimethylbutylcarbamoyl)-2-hydroxypentyl]-5-(2-oxopyrrolidin-1-yl)-benzamide] was tested, and the IC50 (Cathepsin D; [3]) was 2.9 µM, the IC50 (Asp-2; [4]) was 0.06 µM and the IC50 (Asp-1) was 0.42 µM.
Compound CC(=O)Nc1cc(C(=O)N[C@@H](Cc2ccccc2)[C@@H](O)C[C@@H](C)C(=O)NC2CC3CCC2C3)cc(N2CCCC2=O)c1 (stereo partly drawn) [Example E10, 3-Acetylamino-N-[(1S,2S,4R)-1-benzyl-4-(bicyclo[2.2.1]hept-2-ylcarbamoyl)-2-hydroxypentyl]-5-(2-oxopyrrolidin-1-yl)benzamide] has an IC50 (Cathepsin D; [1]) of 0.34 to 3 µM and an IC50 (Asp-2; [2]) of 0.002 to 0.03 µM.
In the case of C[C@H](C[C@H](O)[C@H](Cc1ccccc1)NC(=O)c1cc(N2CCCC2=O)cc(N2CCCC2=O)c1F)C(=O)NC1CC2CCC1C2 (stereo partly drawn) [Example E22, N-[(1S,2S,4R)-1-Benzyl-4-(bicyclo[2.2.1]hept-2-ylcarbamoyl)-2-hydroxypentyl]-2-fluoro-3,5-bis-(2-oxopyrrolidin-1-yl)benzamide], the IC50 (Cathepsin D; [1]) is reported as 0.34 to 3 µM and the IC50 (Asp-2; [2]) is reported as 0.002 to 0.03 µM.
